Test results from BigSolDB 2.1.

CC(C(=O)O)c1ccc2c(c1)CC(=O)c1ccccc1S2 (stereo not drawn)
solubility (mole fraction)
Conditions	278.15 K	283.15 K	288.15 K	293.15 K	298.15 K	303.15 K	308.15 K	313.15 K	318.15 K	323.15 K
in 1,4-dioxane	–	–	0.0923	0.103	0.114	0.127	0.142	0.157	0.173	0.19
in 2-ethoxyethanol	0.0373	0.0458	0.0518	0.0596	0.0677	0.0779	0.0911	0.106	0.12	0.136
in 2-methoxyethanol	0.0278	0.036	0.0437	0.0516	0.0619	0.074	0.0878	0.102	0.119	0.138
in ethanol	0.00265	0.00396	0.00522	0.0071	0.00956	0.012	0.0166	0.0222	0.03	0.0418
in ethyl acetate	0.00812	0.00951	0.0112	0.0131	0.0154	0.0176	0.0216	0.0256	0.0304	0.0362
